Assay results from patent US4600715A, “Benzodiazepine antagonistic β-carboline derivatives and compositions thereof” (Shering Aktiengesellschaft, priority 1983, dated 1986).
In brackets after ≈: the same amount, converted by molar mass.

molecular target: benzodiazepine receptors; assay: not given; details: comparison compound marked *Nature 294: 472 (1981); ^3 H flunitrazepam 1.0 nM, 0° C.; cited from earlier work

Structure (SMILES) | IC50 (in vitro), displacement activity
COC(=O)c1cc2c(cn1)[nH]c1ccccc12 [CO2 Me, H, H] | 1.9 ng/mL (≈ 8.4 nM)

molecular target: benzodiazepine receptors; assay: in vitro displacement of specific ^3 H flunitrazepam binding, cerebral membrane suspension; details: ^3 H flunitrazepam 1.0 nM, 0° C.; rat cerebrum, pH 7.1; concentration effecting 50% displacement of specific binding

IC50 (in vitro), displacement activity | Structure (SMILES)
1.3 ng/mL (≈ 3.66 nM) | CCOC(=O)c1ncc2[nH]c3ccc(C(=O)N(C)C)cc3c2c1COC [CO2 Et, CH2 OCH3, CON(CH3)2, 6-N,N-dimethylcarbamoyl-4-methoxymethyl-β-carboline-3-carboxylic acid ethyl ester]
0.4 ng/mL (≈ 1.06 nM) | C=CCN(CC=C)C(=O)c1ccc2[nH]c3cnc(C(=O)OCC)c(C)c3c2c1 [CO2 Et, CH3, CON(Allyl)2, 6-N,N-diallylcarbamoyl-4-methyl-β-carboline-3-carboxylic acid ethyl ester]
0.6 ng/mL (≈ 1.71 nM) | CCOC(=O)c1cc2c(cn1)[nH]c1ccc(C(=O)N3CCCCC3)cc12 [CO2 Et, H, drawing 10, 6-piperidinocarbonyl-β-carboline-3-carboxylic acid ethyl ester]
0.5 ng/mL (≈ 1.47 nM) | CCCOC(=O)c1ccc2[nH]c3cnc(C(=O)OCC)c(C)c3c2c1 [CO2 Et, Me, COOC3 H7, 6-propoxycarbonyl-4-methyl-β-carboline-3-carboxylic acid ethyl ester]
0.6 ng/mL (≈ 1.6 nM) | CCc1noc(-c2cc3c(cn2)[nH]c2ccc(C(=O)N4CCCCC4)cc23)n1 [drawing 11, H, drawing 12, 3-(5'-[3'-ethyl-1',2',4'-oxadiazol]yl)-β-carboline-6-carboxylic acid piperidide]
